Assay results as given in US20200061026A1, “METHODS AND COMPOSITIONS FOR PREVENTING VECTOR-BORNE DISEASE TRANSMISSION” (The Scripps Research Institute, priority 2016, published 2020).

Columns and labels:
in vitro [1] = conditions: human, hepatocytes
Description: (§1) In a further assay, isoxazolines (fluralaner and afoxolaner) and control compounds (7-Ethoxycoumarin and 7-Hydroxycoumarin [Sigma]) were dissolved in DMSO at 10 and 30 mM respectively, then diluted first 20-fold with 45% methanol in water and a further 10-fold in pre-warmed Williams' Medium E. Cryopreserved human, dog and rat hepatocytes (In Vitro Technologies) were thawed, isolated by percoll gradient and suspended in Williams' Medium E. Cells were then dispensed into the wells of 96-well plates containing 10 μL of diluted compounds, to reach a final concentration of 0.5×10^6 cells/mL and 1 μM of isoxazolines or 3 μM of control. After an incubation at 37° C. of 0, 15, 30, 60 or 90 minutes, the reaction was stopped with acetonitrile. The samples were then shaken for 10 minutes at 500 rpm and centrifuged at 3220 g for 20 minutes. Supernatants were transferred and stored at 4° C. until LC-MS-MS analysis.

in vitro [2] = conditions: hepatocytes
Description: as §1

in vitro [3] = conditions: hepatocytes; remark: listed apart in the source
Description: as §1

Anopheles gambiae Kisumu = assay: WHO paper contact assay, Anopheles gambiae Kisumu; type: in vivo; conditions: papers 0.75% permethrin, 0.05% deltamethrin, 4% DDT, 0.1% bendiocarb, 1.0% fenitrothion, 4% dieldrin
Description: (§2) Mosquito colonies utilized in the examples were generally maintained as described: The colony of Anopheles stephensi (Sind-Kasur Nijmegen strain) was maintained at the Radboud University Medical Center, Nijmegen, The Netherlands, by 30° C. and 70-80% humidity and on a 12/12 hour day/night cycle. The Anopheles gambiae strains Kisumu and Tiassalé and the Aedes aegypti strains New Orleans and Cayman were reared at the Liverpool Insect Testing Establishment, Liverpool, UK. Kisumu is an insecticide susceptible lab strain. New Orleans was originally colonized by the Centers for Disease Control and Prevention. The Tiassalé strain was colonized from Southern Cote D'Ivoire where resistance to all classes of insecticide is found and the Cayman strain was colonized from Grand Cayman, where Aedes aegypti are highly resistant to DDT and pyrethroid insecticides. Both resistant strains are routinely selected with insecticides to ensure the maintenance of resistance, 0.75% permethrin for Cayman and 0.05% deltamethrin for Tiassalé, and profiled for resistance to a range of insecticides, including 4% dieldrin, to which Tiassalé is resistant but Cayman is susceptible.
(§3) Without being bound by theory, isoxazolines occupy a binding site that is distinct from the targets of known modulators of ionotropic GABA receptors. In line with this notion, fluralaner and afoxolaner were fully active against the Anopheles gambiae Tiassalé strain that carries the resistance-to-dieldrin (rdl) mutation in the GABA receptor. In addition, they were equipotent against pyrethroid- and carbamate-resistant strains carrying mutations in the kdr sodium channel and acetylcholine esterase (Ace-1) genes respectively. […] The results are shown as percentage of survival (on over 100 mosquitoes for each case), the bold and underlined numbers indicate values that fall within the criteria for resistance.

[4] = tested on: Anopheles gambiae Tiassale 13; assay: WHO paper contact assay, Anopheles gambiae Tiassale; type: in vivo; conditions: papers 0.75% permethrin, 0.05% deltamethrin, 4% DDT, 0.1% bendiocarb, 1.0% fenitrothion, 4% dieldrin
Description: as §2, §3

[5] = tested on: Aedes aegypti New Orleans; assay: WHO paper contact assay, Aedes aegypti New Orleans; type: in vivo; conditions: papers 0.75% permethrin, 0.05% deltamethrin, 4% DDT, 0.1% bendiocarb, 1.0% fenitrothion, 4% dieldrin
Description: as §2, §3

Aedes aegypti Cayman = assay: WHO paper contact assay, Aedes aegypti Cayman; type: in vivo; conditions: papers 0.75% permethrin, 0.05% deltamethrin, 4% DDT, 0.1% bendiocarb, 1.0% fenitrothion, 4% dieldrin
Description: as §2, §3

[6] = tested on: Anopheles gambiae (Tiassalé); assay: Membrane feeding, Anopheles gambiae Tiassalé strain (rdl mutation); type: in vivo; conditions: Tiassale strain; membrane feeding
Description: as §2
Isoxazoline compounds fluralaner or afoxolaner were reconstituted in 50% human serum and 50% red blood cells and administered to adult Anopheles stephensi mosquitos via standard membrane feeding. Lethality was assessed 1, 2 or 8 days after exposure. FIG. 2A represents a plot of viable Anopheles stephensi versus fluralaner concentration at each day of assessment. FIG. 2B represents a plot of viable Anopheles stephensi versus afoxolaner concentration at each day of assessment. […] The IC50 values of each compound for Anopheles death were determined by logistic regression using a least squares method to find the best fit and are shown in Table 1. IC50 values were calculated by applying a four-parameter logistic regression model using a least-squares method to find the best fit using the Graphpad Prism 5.0 software package.
The membrane feeding experiment described was repeated using the insecticide dieldrin on two strains of Anopheles gambiae: Kisumu and Tiassale. The Tiassale strain has a mutation in the resistance to dieldrin (rdl) locus, which codes for γ-aminobutyric acid (GABA) receptor. The Tiassale strain was resistant to pyrethroids, carbamate, DDT and dieldrin (knockdown resistance (kdr), Ace and rdl mutations). The Kisumu strain was susceptible to killing by all tested insecticides. FIG. 3A represents a plot of percentage survival of Kisumu and Tiassale strains of Anopheles gambiae versus dieldrin concentration. FIG. 3B represents a plot of survival of the Kisumu and Tiassale strains at 10 μM dieldrin. […] Both figures indicate that the dose-response in systemic feed experiment performed here in allows for identification of a resistance profile.
The feed experiment in Anopheles gambiae was repeated using the isoxazoline compounds fluralaner and afoxolaner to determine if the rdl mutation confers resistance to the isoxazoline insecticides. Isoxazoline insecticides target Rdl, but in a location thought to be different from dieldrin. The mosquitos were fed fluralaner or afoxolaner at various concentrations and lethality was assessed after 24 hours. FIG. 4A represents a plot of percentage survival of Kisumu and Tiassale strains of Anopheles gambiae versus fluralaner concentration. FIG. 4B represents a plot of percentage survival of Kisumu and Tiassale strains of Anopheles gambiae versus afoxolaner concentration.

malaria transmission = conditions: cited from earlier work

Compound	percentage of survival (Anopheles gambiae Kisumu) [%]	percentage of survival [4] [%]	percentage of survival [5] [%]	percentage of survival (Aedes aegypti Cayman) [%]	further results
CCOc1ccc2ccc(=O)oc2c1 [7-Ethoxycoumarin]	–	–	–	–	half-life (in vitro [1]): 20.1 min; hepatocyte CLint (in vitro [1]): 69.1 µL/min/1e6 cells; half-life (in vitro [2]; dog): 14 min; hepatocyte CLint (in vitro [2]; dog): 99.3 µL/min/1e6 cells; half-life (in vitro [3]; rat): 61.8 min; hepatocyte CLint (in vitro [3]; rat): 22.4 µL/min/1e6 cells
O=c1ccc2ccc(O)cc2o1 [7-Hydroxycoumarin]	–	–	–	–	half-life (in vitro [1]): 14.7 min; hepatocyte CLint (in vitro [1]): 94.1 µL/min/1e6 cells; half-life (in vitro [2]): 20.4 min; hepatocyte CLint (in vitro [2]): 68.1 µL/min/1e6 cells; half-life (in vitro [3]): 4.8 min; hepatocyte CLint (in vitro [3]): 290 µL/min/1e6 cells
CNC(=O)Oc1cccc2c1OC(C)(C)O2 [Bendiocarb]	100	11	27	20	–
Clc1ccc(C(c2ccc(Cl)cc2)C(Cl)(Cl)Cl)cc1 [DDT]	100	3	100	0	–
CC1(C)[C@H](C(=O)O[C@H](C#N)c2cccc(Oc3ccccc3)c2)[C@@H]1C=C(Br)Br [Deltamethrin]	100	10	100	36	–
ClC1=C(Cl)[C@]2(Cl)[C@@H]3[C@@H]4C[C@@H]([C@H]5O[C@@H]45)[C@@H]3[C@@]1(Cl)C2(Cl)Cl [Dieldrin]	96	21	100	95	resistance of strain to killing (in words) [6]: confers resistance to killing by dieldrin
COP(=S)(OC)Oc1ccc([N+](=O)[O-])c(C)c1 [Fenitrothion]	100	96	100	100	–
CC1(C)C(C=C(Cl)Cl)C1C(=O)OCc1cccc(Oc2ccccc2)c1 (stereo not shown) [Permethrin]	100	3	100	7	–
ivermectin	–	–	–	–	estimated reduction in new malaria cases in children under 5 (malaria transmission; MDA studies): 16%; reduction in infectious Anopheles gambiae (malaria transmission; MDA studies): ~80%; estimated reduction in transmission potential (malaria transmission; co-treatment with artemether-lumefantrine, effect short-lived): 35%
